In US10202361B2, “Pyridazinones as herbicides” (E I DU PONT DE NEMOURS AND COMPANY, priority 2014, dated 2019):
Read-outs that look alike come from different tables or passages of the source.

Assays:
Type in all cases: in vivo
[1] = tested on: rice (Oryza sativa); experiment: Test B flooded paddy test; details: Oryza sativa, 312 h; Flood, 125 g ai/ha; scale of 0 to 100, 0 is no effect, 100 is complete control; 13 to 15 d; read-out: Plant response rating, Rice
Method in brief: (§1)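 Plants at the 2-leaf stage were flooded to 3 cm and treated by applying compound directly to the paddy water, with depth held constant throughout. After 13–15 d in a greenhouse, injury was rated visually against controls on a 0 (no effect) to 100 (complete control) scale.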

[2] = tested on: ducksalad (Heteranthera limosa); experiment: Test B flooded paddy test; details: Heteranthera limosa, 312 h; Flood, 125 g ai/ha; scale of 0 to 100, 0 is no effect, 100 is complete control; 13 to 15 d; read-out: Plant response rating, Ducksalad
Method in brief: as §1

[3] = tested on: barnyardgrass (Echinochloa crus-galli); experiment: Test B flooded paddy test; details: Echinochloa crus-galli, 312 h; Flood, 125 g ai/ha; scale of 0 to 100, 0 is no effect, 100 is complete control; 13 to 15 d; read-out: Plant response rating, Barnyardgrass
Method in brief: as §1

[4] = tested on: sedge, umbrella (small-flower umbrella sedge, Cyperus difformis); experiment: Test B flooded paddy test; details: Cyperus difformis, 312 h; Flood, 125 g ai/ha; scale of 0 to 100, 0 is no effect, 100 is complete control; 13 to 15 d; read-out: Plant response rating, Sedge, Umbrella
Method in brief: as §1

[5] = tested on: johnsongrass (Sorghum halepense); experiment: Test C pre-/postemergence greenhouse herbicide test; details: Sorghum halepense, Johnsongrass, read-out: Plant response rating; for pest or weed control at 31 g/ha: 31 g ai/ha; for pest or weed control at 62 g/ha: 62 g ai/ha; for pest or weed control at 125 g/ha: 125 g ai/ha; for pest or weed control at 250 g/ha: 250 g ai/ha
Excerpt: (§2) Seeds of plant species selected from blackgrass (Alopecurus myosuroides), bromegrass, downy (downy bromegrass, Bromus tectorum), foxtail, green (green foxtail, Setaria viridis), ryegrass, Italian (Italian ryegrass, Lolium multiflorum), wheat (winter wheat, Triticum aestivum), oat, wild (wild oat, Avena fatua), galium (catchweed bedstraw, Galium aparine), bermudagrass (Cynodon dactylon), surinam grass (Brachiaria decumbens), cocklebur (common cocklebur, Xanthium strumarium), corn (Zea mays), crabgrass, large (large crabgrass, Digitaria sanguinalis), cupgrass, woolly (woolly cupgrass, Eriochloa villosa), foxtail, giant (giant foxtail, Setaria faberii), goosegrass (Eleusine indica), johnsongrass (Sorghum halepense), kochia (Kochia scoparia), lambsquarters (Chenopodium album), morningglory (Ipomoea coccinea), nightshade (eastern black nightshade, Solanum ptycanthum), nutsedge, yellow (yellow nutsedge, Cyperus esculentus), pigweed (Amaranthus retroflexus), ragweed (common ragweed, Ambrosia elatior), soybean (Glycine max), sunflower (common oilseed sunflower, Helianthus annuus), Russian thistle (Salsola kali), barnyardgrass (Echinochloa crus-galli), oilseed rape (Brassica napus), waterhemp (common waterhemp, Amaranthus rudis), and velvetleaf (Abutilon theophrasti) were planted into a blend of loam soil and sand and treated preemergence with test chemicals formulated in a non-phytotoxic solvent mixture which included a surfactant.
(§3) At the same time, plants selected from these crop and weed species and also barley (winter barley, Hordeum vulgare), canarygrass (Phalaris minor), windgrass (Apera spica-venti), deadnettle (henbit deadnettle, Lamium amplexicaule), and chickweed (common chickweed, Stellaria media) were planted in pots containing Redi-Earth® planting medium (Scotts Company, 14111 Scottslawn Road, Marysville, Ohio 43041) comprising spaghnum peat moss, vermiculite, wetting agent and starter nutrients and treated with postemergence applications of test chemicals formulated in the same manner. Plants ranged in height from 2 to 18 cm (1- to 4-leaf stage) for postemergence treatments. Treated plants and controls were maintained in a greenhouse for 13 to 15 d, after which time all species were compared to controls and visually evaluated. Plant response ratings, summarized in Table C, are based on a scale of 0 to 100 where 0 is no effect and 100 is complete control. A dash (-) response means no test result.

[6] = tested on: waterhemp (common waterhemp, Amaranthus rudis); experiment: as above; details: Waterhemp
Excerpt: as §2, §3

[7] = tested on: oat, wild (wild oat, Avena fatua); experiment: as above; details: Postemergence
Excerpt: as §2, §3

[8] = tested on: barnyardgrass (Echinochloa crus-galli); experiment: as above; details: Barnyardgrass
Excerpt: as §2, §3

[9] = tested on: ragweed (common ragweed, Ambrosia elatior); experiment: as above; details: Ambrosia artemisiifolia, Ragweed, read-out: Plant response rating; for pest or weed control at 31 g/ha: 31 g ai/ha; for pest or weed control at 62 g/ha: 62 g ai/ha; for pest or weed control at 125 g/ha: 125 g ai/ha; for pest or weed control at 250 g/ha: 250 g ai/ha
Excerpt: as §2, §3

[10] = tested on: galium (catchweed bedstraw, Galium aparine); experiment: as above; details: Galium, read-out: Plant response rating; for pest or weed control at 31 g/ha: 31 g ai/ha; for pest or weed control at 62 g/ha: 62 g ai/ha; for pest or weed control at 125 g/ha: 125 g ai/ha; for pest or weed control at 250 g/ha: 250 g ai/ha
Excerpt: as §2, §3

[11] = tested on: kochia (Kochia scoparia); experiment: as above; details: Postemergence
Excerpt: as §2, §3

[12] = tested on: chickweed (common chickweed, Stellaria media); experiment: Test C postemergence greenhouse herbicide test
Excerpt: as §3

Structure (SMILES): Cc1cc(=O)n(-c2ccc(F)cc2)nc1Cc1ccnc(C(F)(F)F)c1 [Compound 1, 2-(4-fluorophenyl)-5-methyl-6-[[2-(trifluoromethyl)-4-pyridinyl]methyl]-3(2H)-pyridazinone]
- plant injury at 125 g/ha [1]: 20%
- pest or weed control at 125 g/ha [2]: 60%
- pest or weed control at 125 g/ha [3]: 10%
- pest or weed control at 125 g/ha [4]: 80%
- pest or weed control at 31 g/ha ([5]; post-emergence, Postemergence): 5%
- pest or weed control at 62 g/ha ([5]; post-emergence, Postemergence): 5%
- pest or weed control at 125 g/ha ([5]; post-emergence, Postemergence): 5%
- pest or weed control at 250 g/ha ([5]; post-emergence, Postemergence): 5%
- pest or weed control at 31 g/ha ([5]; pre-emergence, Preemergence): 35%
- pest or weed control at 62 g/ha ([5]; pre-emergence, Preemergence): 60%
- pest or weed control at 125 g/ha ([5]; pre-emergence, Preemergence): 85%
- pest or weed control at 250 g/ha ([5]; pre-emergence, Preemergence): 100%
- Plant response rating ([6]; Postemergence, 31 g ai/ha): 50
- Plant response rating ([6]; Postemergence, 62 g ai/ha): 50
- Plant response rating ([6]; Postemergence, 125 g ai/ha): 65
- Plant response rating ([6]; Postemergence, 250 g ai/ha): 65
- Plant response rating ([6]; Preemergence, 62 g ai/ha): 100
- Plant response rating ([6]; Preemergence, 125 g ai/ha): 100
- Plant response rating ([6]; Preemergence, 250 g ai/ha): 100
- Plant response rating ([7]; 31 g ai/ha): 5
- Plant response rating ([7]; 62 g ai/ha): 5
- Plant response rating ([7]; 125 g ai/ha): 5
- Plant response rating ([7]; 250 g ai/ha): 5
- Plant response rating ([8]; Postemergence, 31 g ai/ha): 10
- Plant response rating ([8]; Postemergence, 62 g ai/ha): 10
- Plant response rating ([8]; Postemergence, 125 g ai/ha): 10
- Plant response rating ([8]; Postemergence, 250 g ai/ha): 10
- Plant response rating ([8]; Preemergence, 31 g ai/ha): 35
- Plant response rating ([8]; Preemergence, 62 g ai/ha): 85
- Plant response rating ([8]; Preemergence, 125 g ai/ha): 100
- Plant response rating ([8]; Preemergence, 250 g ai/ha): 100
- pest or weed control at 31 g/ha ([9]; post-emergence, Postemergence): 30%
- pest or weed control at 62 g/ha ([9]; post-emergence, Postemergence): 50%
- pest or weed control at 125 g/ha ([9]; post-emergence, Postemergence): 50%
- pest or weed control at 250 g/ha ([9]; post-emergence, Postemergence): 60%
- pest or weed control at 31 g/ha ([9]; pre-emergence, Preemergence): 25%
- pest or weed control at 62 g/ha ([9]; pre-emergence, Preemergence): 35%
- pest or weed control at 125 g/ha ([9]; pre-emergence, Preemergence): 70%
- pest or weed control at 250 g/ha ([9]; pre-emergence, Preemergence): 100%
- pest or weed control at 31 g/ha ([10]; post-emergence, Postemergence): 40%
- pest or weed control at 62 g/ha ([10]; post-emergence, Postemergence): 65%
- pest or weed control at 125 g/ha ([10]; post-emergence, Postemergence): 70%
- pest or weed control at 250 g/ha ([10]; post-emergence, Postemergence): 70%
- pest or weed control at 31 g/ha ([10]; pre-emergence, Preemergence): 95%
- pest or weed control at 62 g/ha ([10]; pre-emergence, Preemergence): 100%
- pest or weed control at 125 g/ha ([10]; pre-emergence, Preemergence): 100%
- pest or weed control at 250 g/ha ([10]; pre-emergence, Preemergence): 100%
- Plant response rating ([11]; 31 g ai/ha): 80
- Plant response rating ([11]; 62 g ai/ha): 80
- Plant response rating ([11]; 125 g ai/ha): 85
- Plant response rating ([11]; 250 g ai/ha): 85
- Plant response rating ([12]; 31 g ai/ha): 40
- Plant response rating ([12]; 62 g ai/ha): 45
- Plant response rating ([12]; 125 g ai/ha): 60
- Plant response rating ([12]; 250 g ai/ha): 90
